Results on 13 molecules are retold here after patent US5696276A, “Process for preparing 5,8-dihydroxynaphthoquinone derivatives, novel 5,8-dihydroxynaphthoquinone derivatives and their use as anticancer agent” (Kuhnil Pharmaceutical Co., Ltd., priority 1993, dated 1997).

The subject of assay [1] is A549 cancer cells. Nature of the assay: Cytotoxic activity against A549 cancer cells (sulforhodamin B method). The format is cell-based. The following applies: Homo sapiens; A549 cells, SRB method, 48 hours; read-out: ED50, cytotoxic activity against A549. As to the method: The cytotoxic activity against A549 cancer cells was determined using a method for measuring sulforhodamin B (SRB), which was developed in the year 1989 by NIC for measuring anticancer activity of the drug in vitro. For the experiment, cells under subculturing were separated from the attached surface with trypsin-CDTA solution and then dispensed into a 24-well flat-bottom microplate (Falcon) so that the number of cells per well is 8×10^4 (A549). The microplate was incubated in a CO2 incubator for 24 hours to attach the dispensed cells to bottom. The medium was removed with aspirator. Then, 100 μl of the solution of the test compounds diluted in a log-dose of 6 kinds of concentration was added to each well containing cells, in a multiple of 3. The microplate was incubated for further 48 hours. In addition, the diluted solution of the test compounds above was filtered through a 0.22 μm filter, before addition to the cells, to keep the experiment under sterilized condition. The cells were incubated with the test compounds for 48 hours and then the medium was removed from each well. 100 μl of 10% trichloroacetic acid (TCA) was added to each well and then the plate was allowed to stand at 4° C. for one hour to fix the cells to the bottom of plate. After fixing the cells, the plate was washed 5 to 6 times with water to completely remove any remaining TCA solution and then dried at room temperature until water is no longer present. To the completely dried plate was added the dying solution of 0.4% SRB dissolved in 1% acetic acid in an amount of 250 μl per well to stain the cells for 30 minutes and then the plate was washed again 5 to 6 times with 1% acetic acid solution to remove the remaining SRB which is not bound to the cells. The stained cell plate was dried again at room temperature. Then, the dying solution was carefully dissolved in a certain amount of 10 mM Tris so that the O.D. value in the control group at 520 nm is 0.8-1.0 Å (optical density), and the optical density at 520nm was determined. The ED50 value was obtained from the determined optical density. To calculate the activity of the drug against cancer cells, the number of cells (Tz) at the beginning of the addition of drug, the number of cells (C) after incubation with the medium in the absence of drug for 48 hours and the number of cells (T) after incubation in the presence of drugs at each concentration for 48 hours were determined.
The anticancer activity of the test compounds was determined form the following equations. Specifically, in the […] the equation (T-Tz)/(C-Tz)×100 was used and in the case of Tz<T the equation (T-Tz)/Tz×100 was used. Then the IC50 value wich is the concentration of drug which inhibits the growth of cancer cells by 50% was calcualted from the above calculated values using a data regressive function of LOTUS programme and the cytotoxic activities of the test compounds were compared with each other.
On the technique in general: In SRB staining, fixed cells bind dye roughly in proportion to their protein.

Assay [2] concerns L1210 cells. Description: Cytotoxic activity against L1210 cells. The format is cell-based. Particulars: Mus musculus; L1210 cells, 48 hours, 37° C.; read-out: ED50, cytotoxic activity against L1210. As to the method: To obtain L1210 cells in a logarithmic phase for cytotoxic activity test, in a 250 ml Erlenmeyer flask with a screw cap including Fisher medium warmed to 36° to 37° C. L1210 cells were adjusted to a concentration of 2-3×10^5 cells/ml and then cultured, before 24 hours from the beginning of experiment. Then, the culture solution thus obtained was suspended to prepare a L1210 cell suspension having a concentration of about 0.8-1.0×10^6 cells/ml. Test sample was dissoved in ethanol or dimethylsulfoxide in a certain concentration just before the experiment. 0.1 ml of the sample solution was diluted 10 times with 0.9 ml of a fresh medium. To each screw-capped test tube were added 100, 50, 25 μl, respectively, of the sample dilutions and then added 5 ml of the cell suspension (5×10^4 cells/ml) prepared above to use as the test group. To the test tubes for the control group (2√n: n=number of the samples), only 5 ml of the cell suspension was added. All test tubes were cultured for 48 hours in a CO2 incubator at 37° C. and then the number of cells was counted using a haemacytometer.
(§1) The ED50 value is defined as a concentration (μg/ml) of the sample which inhibits the growth of cancer cells by 50% of the control group and determined according to a method described in NIC's mannual (NIC=National Cancer Institue, U.S.A.). The growth rate Y(%) of cells in the presence of the test sample in each concentration was calculated according to the followign equation: […]
(§2) In the above equation, T means the average cell number per ml in the test group after incubation for 48 hours in the presence of the test samples in each concentration, C means the average cell number per ml in the control group after incubation for 48 hours, and Co means the average cell number per ml in the control group at the beginning of incubation. The Y(%) value at each concentration and log10 value of each concentration were obtained and the regression curve was constructed according to the following equation from those obtained values. In this case, when all the Y(%) value obtained at each concentration is greater than 55% or lower than 45%, the experiment was repeatedly conducted.
(§3) To construct the regression curve Y=A+BX the values A and B were obtained using the following equation. [formula]
(§4) In the above, the value N is the number of selected points which is greater than 2 and lower than, or identical with, the number of cencentration of the test sample, Xi is log(concentration) i, and Yi is the growth ratio at (concentration)i. The value of ED50 was obtained for those obtained slope and intercept.

Assay [3] deals with S-180 sarcoma cells. Description: Animal experiment using Sarcoma S-180 cells (survival of mouse). The class given is in vivo, male ICR mouse. The following applies: ip, S-180 ICR mouse, intraperitoneal, 7 to 8 injections; for responders at 10 µmol/kg / responders at 5 µmol/kg: 1200 h, read-out: Number of mouse survived for 50 days (converted); for responders at 10 µmol/kg / response vs control in vivo at 10 µmol/kg: daily dose 10 μmole (mg/kg/day given per compound); for response vs control in vivo at 10 µmol/kg / response vs control in vivo at 5 µmol/kg: read-out: T/C; for responders at 5 µmol/kg / response vs control in vivo at 5 µmol/kg: daily dose 5 μmole (mg/kg/day given per compound). As to the method:
In this experiment, healthy male ICR mouse weighing 20 to 25 g were used as test animal and were fed with water and feed without any restriction in the chamber controlled at the temperature of 23° to 24° C. As the feed, the antibiotic-free feed for mouse was used.
S-180 cells which were incubated for 7 days within abdominal cavity of ICR mouse were separated together with ascites. To the separated cells was added sterilized cold physiological saline and the mixture was centrifuged with 400×g for 2 minutes to separate the cell precipitate. The separated cell precipitate was suspended again in sterilized cold physiological saline and then centrifuged to remove the supernatant. Only S-180 cells were taken, excluding any red bllod cells incorporated therein, washed three times with the same method as above, and then suspended to obtain the cell suspension in concentration of 10^7 cells/ml by counting the number of cells with a haemacytometer. Each 0.1 ml of this cell suspension was transplanted in an abdominal cavity.
After 24 hours from the transplantation, mouse were divided so that each group contains 8 to 9 mouse. The test sample was dissolved in a predetermined amount of dimethylsulfoxide to prepare the stock solution which was stored at 4° C. 30 μl of the stock solution was taken and then mixed with 1.5 ml of physiological saline. 0.1 ml of this mixture was intraperitoneally injected to the test animal. To the control group, 2% dimethylsulfoxide-physiological saline solution was injected. Meanwhile, doxorubicin which is used as the comparative drug was dissolved in 2% dimethylsulfoxide-physiological saline solution and then injected in an amount of 0.5 mg(titer)/kg. The schedule for injection comprises a total of 7 to 8 injections in the manner that after the transplantation of cancer cells 0.1 ml of the test sample per a day is administered for 2 to 4 days followed by the rest for one day. The survival rate was calculated on the basis of the date on which all of one control group is died (approximately 18 to 20 days). The survival rate (T/C, %) was calculated by the following equation as proposed in NIC's protocol: [formula]

Assay [4] relates to K-562 cells. Nature of the assay: Cytotoxic activity against K-562 cells. The class given is cell-based. Particulars: Homo sapiens; K562 cells, 48 hours, 37° C.; read-out: ED50, cytotoxic activity against K562. As to the method: As in the test for the cytotoxic activity against L1210 cells, the test samples were dissoved in ethanol or dimethylsulfoxide in a certain concentration. 0.1 ml of the sample solution was mixed with 0.9 ml of a fresh medium to prepare the dilutions. To each two test tubes having a screw cap were added 100, 50, 25 μl, respectively, of the sample dilutions by means of a micropipet. To each test tube for the test group and the control group (2√n: n=number of the samples) was added 5 ml of the dilutions of HL-60 cells and K-562 cells which were cultured and activated before 24 hours from the beginning of experiment and then diluted in a concentration of 1×10^5 cells/mi. All test tubes were cultured for 48 hours in a CO2 incubator at 37° C. and then the number of cells was counted using a haemacytometer.
as §1, §2, §3, §4

In brackets after ≈: the same amount, converted by molar mass.

Regarding `CCCCCC(=O)OC(CCC(C)C)C1=CC(=O)c2c(O)ccc(O)c2C1=O` (centres unmarked), the IC50 in assay [1] amounted to 0.4 µg/mL (≈ 1.03 µM); in assay [2], 0.3 µg/mL (≈ 0.772 µM); in assay [4] it was 0.05 µg/mL (≈ 0.129 µM). The responders at 10 µmol/kg in assay [3] is 0%. Besides, the response vs control in vivo at 10 µmol/kg in assay [3] came out at 151%.

As to `CC(=O)OC(CCC(C)C)C1=CC(=O)c2c(O)ccc(O)c2C1=O` (centres unmarked) [2-(1-acetoxy-4-methylpentyl)-5,8-dihydroxy-1,4-naphthoquinone], the IC50 in assay [1] amounted to 1.5 µg/mL (≈ 4.51 µM); in assay [2], 0.05 µg/mL (≈ 0.15 µM); in assay [4], 0.07 µg/mL (≈ 0.211 µM). Besides, the responders at 5 µmol/kg in assay [3] is 14.3%. Further, the response vs control in vivo at 5 µmol/kg in assay [3] worked out at 188%.

Turning to `CCCCCCCCCC(OC(C)=O)C1=CC(=O)c2c(O)ccc(O)c2C1=O` (centres unmarked) [2-(1-acetoxydecyl)-5,8-dihydroxy-1,4-naphthoquinone], the IC50 in assay [1] was 0.3 µg/mL (≈ 0.772 µM); in assay [2], 0.4 µg/mL (≈ 1.03 µM); in assay [4], 0.1 µg/mL (≈ 0.257 µM). Further, in assay [3], the responders at 10 µmol/kg was 14.3%. The response vs control in vivo at 10 µmol/kg in assay [3] came out at 197%.

Regarding `CCCCCC(OC(C)=O)C1=CC(=O)c2c(O)ccc(O)c2C1=O` (centres unmarked) [2-(1-acetoxyhexyl)-5,8-dihydroxy-1,4-naphthoquinone], the results for the IC50 in assay [1], in assay [2] and in assay [4] were 0.7 µg/mL (≈ 2.11 µM), 0.08 µg/mL (≈ 0.241 µM) and 0.01 µg/mL (≈ 0.0301 µM), respectively. The responders at 5 µmol/kg in assay [3] was 25%. Further, the response vs control in vivo at 5 µmol/kg in assay [3] is 150%.

Regarding `CCCCCCCCCCCCC(OC(C)=O)C1=CC(=O)c2c(O)ccc(O)c2C1=O` (centres unmarked) [2-(1-acetoxytridecyl)-5,8-dihydroxy-1,4-naphthoquinone], the IC50 in assay [1] was determined as 15.8 µg/mL (≈ 36.7 µM); in assay [2], 0.4 µg/mL (≈ 0.929 µM); in assay [4], 4.2 µg/mL (≈ 9.76 µM). Moreover, in assay [3], the responders at 10 µmol/kg is 14.3%. Also, the response vs control in vivo at 10 µmol/kg in assay [3] turned out to be 131%.

Take `CCOC(CCC(C)C)C1=CC(=O)c2c(O)ccc(O)c2C1=O` (centres unmarked) [2-(1-ethoxy-4-methylpentyl)-5,8-dihydroxy-1,4-naphthoquinone]: the IC50 amounted to 1.7 µg/mL (≈ 5.34 µM) in assay [1], 0.04 µg/mL (≈ 0.126 µM) in assay [2] and 0.08 µg/mL (≈ 0.251 µM) in assay [4]. The responders at 10 µmol/kg in assay [3] is 0%. In addition, the response vs control in vivo at 10 µmol/kg in assay [3] is 105%.

As to `CCCCCC(=O)OC(CCCCC)C1=CC(=O)c2c(O)ccc(O)c2C1=O` (centres unmarked) [2-(1-hexanoyloxyhexyl)-5,8-dihydroxy-1,4-naphthoquinone], the IC50 was 0.3 µg/mL (≈ 0.772 µM) in assay [1], 0.1 µg/mL (≈ 0.257 µM) in assay [2] and 0.2 µg/mL (≈ 0.515 µM) in assay [4]. In addition, the responders at 10 µmol/kg in assay [3] was 0%. In assay [3], the response vs control in vivo at 10 µmol/kg is 151%.

Consider `CCCCCCCCCCCCC(O)C1=CC(=O)c2c(OC)ccc(OC)c2C1=O` (centres unmarked) [2-(1-hydroxytridecyl)-5,8-dimethoxy-1,4-naphthoquinone], for which the figures for the IC50 in assay [1], in assay [2] and in assay [4] were 2.8 µg/mL (≈ 6.72 µM), 1.8 µg/mL (≈ 4.32 µM) and 2.3 µg/mL (≈ 5.52 µM), respectively.

With `COc1ccc(OC)c2c1C(=O)C=C(C(CCC(C)C)OC)C2=O` (centres unmarked) [2-(1-methoxy-4-methylpentyl)-5,8-dimethoxy-1,4-naphthoquinone], the IC50 in assay [1] worked out at 5.6 µg/mL (≈ 16.8 µM); in assay [2], 0.2 µg/mL (≈ 0.602 µM); in assay [4], 2.1 µg/mL (≈ 6.32 µM).

Turning to `CCCCCCCCCC(OC(=O)CCCCCCC)C1=CC(=O)c2c(O)ccc(O)c2C1=O` (centres unmarked) [2-(1-octanoyloxydecyl)-5,8-dihydroxy-1,4-naphthoquinone], the IC50 in assay [1] is above 20 µg/mL; in assay [2] it was 0.9 µg/mL (≈ 1.9 µM); in assay [4], above 20 µg/mL.

With `CCCCCOC(CCC(C)C)C1=CC(=O)c2c(O)ccc(O)c2C1=O` (centres unmarked) [2-(1-pentyloxy-4-methylpentyl)-5,8-dihydroxy-1,4-naphthoquinone], the values for the IC50 in assay [1], in assay [2] and in assay [4] were 1.3 µg/mL (≈ 3.61 µM), 0.3 µg/mL (≈ 0.832 µM) and 0.2 µg/mL (≈ 0.555 µM), respectively.

Consider `CCCCCOC(CCC(C)C)C1=CC(=O)c2c(OC)ccc(OC)c2C1=O` (centres unmarked) [2-(1-pentyloxy-4-methylpentyl)-5,8-dimethoxy-1,4-naphthoquinone], for which the figures for the IC50 in assay [1], in assay [2] and in assay [4] were 7.8 µg/mL (≈ 20.1 µM), 2.6 µg/mL (≈ 6.69 µM) and 3 µg/mL (≈ 7.72 µM), respectively.

For `COc1ccc(OC)c2c1C(=O)C=C(C(CCC(C)C)OCCC(C)C)C2=O` (centres unmarked) [2-[1-(3-methylbutoxy)-4-methylpentyl]-5,8-dimethoxy-1,4-naphthoquinone], the IC50 came out at 3.3 µg/mL (≈ 8.49 µM) in assay [1], 2.5 µg/mL (≈ 6.43 µM) in assay [2] and 2.3 µg/mL (≈ 5.92 µM) in assay [4].
